Results: patent US20240390434A1, “PROBIOTIC ENHANCERS AND USES THEREOF” (Blis Technologies Limited, priority 2021, published 2024)

Legend:
Assay type in all cases: cell-based
[1] = system: indicator bacterial test strains; assay: Inhibitory activity of freeze dried raw ingredient powder, K12 and M18 combination; conditions: galactose 0.5% w/w; raffinose 2.5% w/w; or combination
Procedure: (§1) Method: The amount of raffinose and galactose used was calculated based on the volume of the area of the producer streak, (which was calculated to be 4.25 g) to allow for the absorption of the saccharides into the agar. Based on this, amount of 0.021 g (i.e. 0.5% w/w galactose of 4.25 g agar volume) of galactose, 0.11 g (i.e 2.5% w/w) of raffinose and the combination of galactose (0.5% w/w) and raffinose (2.5% w/w) (0.13 g total) were weighed into sterile containers. K12 and/or M18 raw ingredient were suspended and diluted with sterile distilled water to a concentration of 1-2×10^6 cfu/100 μl. Then, […] of K12 only, M18 only, and K12±M18 suspensions were spread as a 1 cm streak down the middle of a CABCa agar plate using a sterile spreader. […] Bacterial growth was then removed using a microscope slide, and the pH of the agar in the producer streak area was measured and adjusted to pH 6.5-7.5 using 0.5M sodium carbonate (pH 11) before surface sterilizing the plates with chloroform vapour. […] Zones of inhibition for each test organism were then measured in mm using a ruler. The amount of raffinose and galactose to be used was calculated based on the volume of the area of the producer streak, (which was calculated to be 4.25 g) to allow for absorption into the agar.

[2] = system: S. pyogenes strains or other pathogens; assay: Inhibitory activity of K12 grown in M17 broth with saccharides; conditions: saccharide 0.83% or 2.5% w/v, vs control
[3] = system: bacterial indicator strains; assay: Split plate inhibitory activity of K12 in infant formula or whole milk powder (overall); conditions: galactose 0.5% w/w or raffinose 2.5% w/w added
Procedure: The following method was used to measure the inhibitory effect of S. salivarius K12 in the context of the powder formulations. Exactly 40 mL of 50° C. molten CAB agar containing 0.5% calcium carbonate (CABCa) was poured in agar plates (120×120 mm). Once the agar was set upon cooling, it was split in the middle and half of the agar gel was removed. The other half was left on the plate as Blank agar marked as side “A”. Approximately, 0.8 g of each combination (DDJ powder with (1) galactose, (2) raffinose or (3) combination of raffinose and galactose) was mixed with 1 mL of sterile distilled water and vortexed to produce a homogeneous suspension. 100 μl of the suspension was reserved for spreading on the surface of agar (producer side B). The remaining suspension was then mixed with 20 mL of molten CABCa agar and the mixture was poured into the empty half of the agar plate to form producer side “B”. The 100 μL of the reserved suspension was spread over the surface on side B and the plates were incubated for 18 h, 37° C., 5% CO2 in air. […] The pH of the producer side was measured and adjusted to 6.5-7.5 by soaking into the agar a solution of 0.5 M sodium carbonate pH 11. […] The zone of inhibition of each indicator strain was measured (in mm) using a ruler. Results were also read using a macroscope to establish presence of small colonies or complete inhibition zones. […]

[4] = system: indicator bacterial test strains; assay: Inhibitory activity of freeze dried raw ingredient powder, M18; conditions: galactose 0.5% w/w; raffinose 2.5% w/w; or combination
Procedure: as §1

[5] = system: halitosis-causing gram-negative bacteria F. nucleatum, P. gingivalis and P. intermedia; assay: Deferred antagonism assay (anaerobic), producer K12; conditions: 2.5% w/w raffinose; 0.5% w/w galactose; or combination
Procedure: Method: CABCa agar plates were prepared with or without 2.5% w/w raffinose, 0.5% w/w galactose or a combination of both saccharides by the addition of 0.5% (w/v) calcium carbonate to solid CAB agar in bottles and then melted by autoclaving at 110° C. for 10 mins. Once cooled, filter sterilised solutions of the saccharides or distilled water were added and mixed and then 20 ml pipetted into petri dishes.
A deferred antagonism assay was conducted using K12 or M18 raw ingredient suspended in THB. This was spread as a 1.2 cm streak containing approximately 1-2×10^6 cfu down the middle of a CABCa control or CABCa galactose supplemented test plate. After 18 hrs growth at 37° C., 5% CO2 in air, bacterial growth was removed, and the pH of the agar in the initial streak was measured and adjusted to a pH of 6.5-7.5 using 0.5M sodium carbonate pH11 before sterilizing the agar surface using chloroform vapor. Bacterial test strains were suspended in THB and swabbed across the plates perpendicular to the initial streak and then the plates were incubated at 37° C. in an anaerobic jar containing an anaeroGen sachet for 4 days. Zones of inhibition for each test strain were then measured (mm).

L. lactis T-21 = assay: Dose response deferred antagonism assay, producer M18

## OC[C@H]1O[C@H](OC[C@H]2O[C@H](O[C@]3(CO)O[C@H](CO)[C@@H](O)[C@@H]3O)[C@H](O)[C@@H](O)[C@@H]2O)[C@H](O)[C@@H](O)[C@H]1O [Raffinose, D-(+) Raffinose pentahydrate]
[1]
  inhibitory activity of freeze-dried raw ingredient powder of K12 and M18 combination: induced the inhibitory activity
[2]
  inhibitory activity of K12 grown in presence of saccharide: greater inhibitory activity
[3]
  inhibitory activity of K12 in infant formula compared to the control: reduction in inhibitory activity
[4]
  inhibitory activity of freeze-dried raw ingredient powder of M18: induced the inhibitory activity
[5]
  antimicrobial activity of K12 against halitosis-causing gram-negative bacteria: inhibit a variety of strains
L. lactis T-21; 0.1% (w/v) raffinose
  L. lactis ZOI size: 20 mm

## O=C[C@H](O)[C@@H](O)[C@@H](O)[C@H](O)CO [Galactose, D-galactose]
[1]
  inhibitory activity of freeze-dried raw ingredient powder of K12 and M18 combination: induced the inhibitory activity
[2]
  inhibitory activity of K12 grown in presence of saccharide: greater inhibitory activity
[3]
  inhibitory activity of K12 in infant formula compared to the control: reduction in inhibitory activity
[4]
  inhibitory activity of freeze-dried raw ingredient powder of M18: induced the inhibitory activity
[5]
  antimicrobial activity of K12 against halitosis-causing gram-negative bacteria: did not induce antimicrobial activity
L. lactis T-21; 1.5% (w/v) galactose, largest
  L. lactis zone of inhibition: 9 mm
